Blank lines part the entries; values can stand above or below the molecule they belong to.
Key:
HL-60 = experiment: Inhibition of cell development in human HL-60 cells; type: functional, cell-based
c-Myc/Max = c-Myc/Max (Homo sapiens, UniProt P01106+P61244); experiment: Inhibition of His6-tagged Max (151 residues)(unknown origin) expressed in bacterial system/recombinant MYC ) (unknown origin) expressed in bacterial system by EMSA
[1] = Lipophilicity, logP of compound; type: physicochemical; conditions: octanol/water
Burkitts lymphoma cell = experiment: Inhibition of cell growth in human Burkitts lymphoma cells; type: functional, cell-based
[2] = target: Myc proto-oncogene protein (Homo sapiens, UniProt P01106); experiment: Binding affinity to CM5 sensor chip immobilized MYC bHLHZip domain (unknown origin) assessed as dissociation constant by SPR analysis

Compound: COC(=O)c1ccc(Nc2ccc([N+](=O)[O-])c3nonc23)c(-c2ccc(C)cc2)c1
- IC50 (c-Myc/Max): 34 µM

Compound: Cn1nc(C(F)(F)F)cc1-c1ccc(OCc2ccc(Cl)cc2)c(-c2ccc(Cl)c(C(F)(F)F)c2)c1O
- logP [1]: 8.4

Further lines, results first:

- IC50 (HL-60): 30 µM
Compound: O=C(O)c1ccc(Nc2ccc([N+](=O)[O-])c3nonc23)cc1

- IC50 (HL-60): 7.2 µM
Compound: O=[N+]([O-])c1ccc(Nc2ccccc2-c2ccccc2)c2nonc12

- IC50 (Burkitts lymphoma cell): 0.5 µM
- Kd [2]: 1.6 µM
Compound: COc1ccc2nc3cc(/N=N/c4ccc(N)nc4N)ccc3c(N)c2c1
